{"source": "paper PMC7918798", "about": "“Coumarins from Seseli devenyense Simonk.: Isolation by Liquid–Liquid Chromatography and Potential Anxiolytic Activity Using an In Vivo Zebrafish Larvae Model” (International Journal of Molecular Sciences, 2021)", "key": {"zebrafish": {"system": "zebrafish", "set-up": "method as in PMID 33049351", "conditions": "zebrafish model; cited from earlier work"}, "murine model": {"system": "murine model", "set-up": "method as in PMID 33049351", "conditions": "cited from earlier work"}, "mice": {"system": "mice", "conditions": "5 mg/kg; cited from earlier work"}, "animal model": {"system": "animal model", "conditions": "cited from earlier work; for anxiolytic activity (percentage of time and number of arms entries in the open arm): elevated plus maze"}, "GABAA receptor": {"molecular_target": "GABAA receptor", "conditions": "cited from earlier work; for influence on GABAA receptor: compared with phellopterin"}, "GABA/BDZ receptor": {"system": "GABA/BDZ receptor", "set-up": "method as in PMID 8971802", "conditions": "cited from earlier work"}, "[1]": {"assay": "Shake-flask partition coefficient in HEMWat biphasic solvent systems", "assay_type": "physicochemical", "procedure": "The screening for suitable biphasic solvent systems to isolate the target coumarins from Seseli devenyense methanolic fruit extract (SDMFE) was performed by shake-flask experiments. The partition coefficient (Pi), defined as the ratio of the concentration of a solute in the stationary phase to its concentration in the mobile phase, was used as the screening parameter. The experimental protocol was previously descried by Widelski et al. (2018). Briefly, 1 mg of crude extract was dissolved in 4 mL of biphasic solvent systems obtained by mixing various volumes of hexane, ethyl acetate, methanol and water (HEMWat). After vigorous shaking, the flasks were left until the complete separation of the layers. Then, equal volumes of the upper and lower phase (0.5 mL) were taken, evaporated to dryness, dissolved again in methanol (1.0 mL) and analyzed by HPLC-DAD analysis, as descried below.\nThe preliminary analysis of the SDMFE, determination of the partition coefficient values and purity of collected fractions were assessed by HPLC-DAD. The HPLC-DAD analyses were performed on a Shimadzu HPLC (Shimadzu, Tokyo, Japan) equipped with automatic degasser (DGU-20A3R), quaternary pump (LC-20AD), auto-sampler (SIL-20AHT) and diode array detector (SPD-M20A). The separations were carried out on an Agilent Zorbax Eclipse XDB-C18 (Agilent, Santa Clara, CA, USA) (250 mm × 4.6 mm, 5 μm) column with a mobile phase consisting of water (solvent A) and methanol (solvent B). The following gradient was applied: 0 min: 50% B; 5 min: 60% B; 25 min: 80% B; 30–35 min: 100% B. The flow-rate was 1 mL/min; the column temperature was set at 25 °C. The injection volume of sample was 10 μL and detection was carried out at 320 nm."}, "5-dpf zebrafish larvae [2]": {"system": "5-dpf zebrafish larvae", "assay": "Zebrafish larvae light/dark transition challenge: locomotor activity and thigmotaxis (anxiolytic activity assay, Phase 2)", "assay_type": "in vivo, Danio rerio", "conditions": "for distance moved by the larvae in the central arena / time spent in the central area: dark phase vs light phase, concentration not stated", "procedure": "(§1) The research protocol was adopted after Schnorr et al. (2012). The anxiolytic activity was evaluated in 24-well plates. The inner and outer zones of the well were delineated according to Schnorr et al. (2012). […] It could be also described as decreasing thigmotaxis. 1% DMSO in E3 solution was used as the negative control, 10 μM diazepam was used as the positive control. 32 larvae were used for each concentration.\n(§2) The experimental procedure was divided into three stages: • (a) Preincubation: larvae were pre-incubated in a 1500 μL solution of tested compounds in individual wells of a 24-well plate at 28.5 °C, in dark, for 30 min. • (b) Acclimatization (min 0–10): plates were placed in an automated video recording bench station (ViewPoint, Lyon, France). Larvae were allowed to acclimatize to the test apparatus for 10 min. During this period, lights were kept on. • (c) Visual motor challenge (min 11–95): this stage experiment was divided into two phases: Phase 1—continuous illumination: larvae were subjected to continuous light for 40 min, with the purpose to determine the spontaneous locomotor activity and thigmotaxis behavior (before applying the factor causing the anxiety). Phase 2—light/dark transition: larvae were subjected to three cycles, each involving the 10-min lighting phase (continuous light) and the 5-min dark phase (anxiogenic factor)."}, "5-dpf zebrafish larvae [3]": {"system": "5-dpf zebrafish larvae", "assay": "Zebrafish larvae 40 min continuous illumination: spontaneous locomotor activity and thigmotaxis (Phase 1)", "assay_type": "in vivo, Danio rerio", "conditions": "40 min continuous illumination", "procedure": "as §1, §2"}, "[4]": {"set-up": "method as in PMID 23803166", "conditions": "cited from earlier work"}, "[5]": {"conditions": "dark phase vs DMSO-treated group in dark phase, 9 μM"}, "[6]": {"conditions": "dark phase vs DMSO-treated group in dark phase, 15 μM"}, "[7]": {"conditions": "dark phase vs light phase within same group, 9 μM"}, "[8]": {"conditions": "dark phase vs light phase within same group, 15 μM"}, "[9]": {"conditions": "dark phase vs light phase within same group, 30 μM"}, "[10]": {"conditions": "dark phase vs DMSO-treated group in dark phase, 1.5 μM"}, "[11]": {"conditions": "dark phase vs DMSO-treated group in dark phase, 6 μM"}, "[12]": {"conditions": "dark phase vs light phase within same group, 1.5 μM"}, "[13]": {"conditions": "dark phase vs light phase within same group, 3 μM"}, "[14]": {"conditions": "dark phase vs light phase within same group, 6 μM"}}, "data": [{"smiles": "COc1c2occc2cc2ccc(=O)oc12", "note": "[xanthotoxin]", "values": [{"measurement": "effect on anxiety behaviors (thigmotaxis)", "setting": "zebrafish", "result": "reversed U-shape effect"}, {"measurement": "effect on anxiety behaviors (thigmotaxis)", "setting": "murine model", "result": "reversed U-shape effect"}]}, {"smiles": "CC(C)=CCCC(C)=CCc1cc2ccc(=O)oc2cc1O", "note": "[ostruthin, 6-(3,7-dimethyl-2,6-octadienyl)-7-hydroxycoumarin]", "values": [{"measurement": "anxiolytic effect", "setting": "mice", "result": "anxiolytic effect"}]}, {"smiles": "CC(C)=CCOc1c2ccoc2cc2oc(=O)ccc12", "note": "[isoimperatorin]", "values": [{"measurement": "anxiolytic activity (percentage of time and number of arms entries in the open arm)", "setting": "animal model", "result": "significant anxiolytic activity"}]}, {"smiles": "COc1c2ccoc2c(OCC=C(C)C)c2oc(=O)ccc12", "note": "[phellopterin]", "values": [{"measurement": "IC50", "setting": "GABAA receptor", "result": 360, "unit": "nM"}, {"measurement": "mode of action at GABA/BDZ receptor", "setting": "GABA/BDZ receptor", "result": "partial agonists"}]}, {"smiles": "COc1c2ccoc2c(OC[C@H]2OC2(C)C)c2oc(=O)ccc12", "note": "[byakangelicol]", "values": [{"measurement": "mode of action at GABA/BDZ receptor", "setting": "GABA/BDZ receptor", "result": "partial agonists"}]}, {"smiles": "CCCCCCCC(=O)O[C@H]1Cc2c(ccc3ccc(=O)oc23)OC1(C)C", "note": "[octanoyllomatin]", "values": [{"measurement": "Partition Coefficients (Pi)", "setting": "[1]; solvent system III, hexane/ethyl acetate/methanol/water 5/2/5/2 (v/v/v/v)", "result": 2.01}, {"measurement": "percentage of distance moved in central area", "setting": "5-dpf zebrafish larvae [2]; [5]", "result": "significant increases"}, {"measurement": "percentage of time spent in central area", "setting": "5-dpf zebrafish larvae [2]; [5]", "result": "significant increases"}, {"measurement": "percentage of time spent in central area", "setting": "5-dpf zebrafish larvae [2]; [6]", "result": "significant increases"}, {"measurement": "locomotor activity (average distance moved per 1-min time bin)", "setting": "5-dpf zebrafish larvae [2]; dark phase vs DMSO-treated group in dark phase, 30 μM", "result": "significant decreases"}, {"measurement": "locomotor activity (average distance moved per 1-min time bin)", "setting": "5-dpf zebrafish larvae [2]; [7]", "result": "increase"}, {"measurement": "percentage of distance moved in central area", "setting": "5-dpf zebrafish larvae [2]; [7]", "result": "increase"}, {"measurement": "percentage of time spent in central area", "setting": "5-dpf zebrafish larvae [2]; [7]", "result": "increase"}, {"measurement": "locomotor activity (average distance moved per 1-min time bin)", "setting": "5-dpf zebrafish larvae [2]; [8]", "result": "increase"}, {"measurement": "percentage of distance moved in central area", "setting": "5-dpf zebrafish larvae [2]; [8]", "result": "increase"}, {"measurement": "percentage of time spent in central area", "setting": "5-dpf zebrafish larvae [2]; [8]", "result": "increase"}, {"measurement": "percentage of distance moved in central area", "setting": "5-dpf zebrafish larvae [2]; [9]", "result": "increase"}, {"measurement": "percentage of time spent in central area", "setting": "5-dpf zebrafish larvae [2]; [9]", "result": "increase"}, {"measurement": "distance moved by the larvae in the central arena", "setting": "5-dpf zebrafish larvae [2]", "result": "significantly increased"}, {"measurement": "time spent in the central area", "setting": "5-dpf zebrafish larvae [2]", "result": "significantly increased"}, {"measurement": "percentage of time spent in central area", "setting": "5-dpf zebrafish larvae [2]; light phase vs DMSO-treated group in light phase, 30 μM", "result": "decrease"}, {"measurement": "anxiolytic activity (authors' overall statement)", "setting": "5-dpf zebrafish larvae [2]; zebrafish larvae model", "result": "highest anxiolytic activity"}, {"measurement": "spontaneous locomotor activity (average distance moved)", "setting": "5-dpf zebrafish larvae [3]; all concentrations (9, 15, 30 µM)", "result": "has not influenced"}]}, {"smiles": "CC(C)=CCOc1c2occc2cc2ccc(=O)oc12", "note": "[imperatorin]", "values": [{"measurement": "influence on GABAA receptor", "setting": "GABAA receptor", "result": "weaker influence"}, {"measurement": "anxiolytic activity (percentage of time and number of arms entries in the open arm)", "setting": "animal model", "result": "significant anxiolytic activity"}]}, {"smiles": "COc1c2ccoc2cc2oc(=O)ccc12", "note": "[bergapten]", "values": [{"measurement": "influence on GABAA receptor", "setting": "GABAA receptor", "result": "weaker influence"}]}, {"smiles": "COc1cc2ccc(=O)oc2cc1O", "note": "[scopoletin, 7-hydroxy-6-methoxycoumarin]", "values": [{"measurement": "anxiolytic effects", "setting": "[4]", "result": "significant sustained anxiolytic effects"}]}, {"smiles": "COc1cc2cc(Oc3ccc4ccc(=O)oc4c3)c(=O)oc2cc1O", "note": "[daphnoretin]", "values": [{"measurement": "anxiolytic activity", "setting": "animal model; rodent model of anxiety, tested on EPM", "result": "significant anxiolytic activity"}]}, {"smiles": "O=c1ccc2cc3ccoc3cc2o1", "note": "[psolaren]", "values": [{"measurement": "mode of action at GABA/BDZ receptor", "setting": "GABA/BDZ receptor", "result": "partial agonists"}]}, {"smiles": "CC(C)(O)C(O)Cc1c(O)ccc2ccc(=O)oc12", "note": "(stereo not drawn) [devenyol]", "values": [{"measurement": "Partition Coefficients (Pi)", "setting": "[1]; solvent system I, hexane/ethyl acetate/methanol/water 2/5/2/5 (v/v/v/v)", "result": 0.80}, {"measurement": "anxiolytic activity (authors' overall statement)", "setting": "5-dpf zebrafish larvae [2]; concentrations of 1.5, 6, 9 and 15 μM", "result": "active"}, {"measurement": "locomotor activity (average distance moved per 1-min time bin)", "setting": "5-dpf zebrafish larvae [2]; [10]", "result": "decreases"}, {"measurement": "percentage of distance moved in central area", "setting": "5-dpf zebrafish larvae [2]; [10]", "result": "significant increases"}, {"measurement": "percentage of time spent in central area", "setting": "5-dpf zebrafish larvae [2]; [10]", "result": "significant increase"}, {"measurement": "percentage of distance moved in central area", "setting": "5-dpf zebrafish larvae [2]; [11]", "result": "significant increases"}, {"measurement": "percentage of time spent in central area", "setting": "5-dpf zebrafish larvae [2]; [11]", "result": "significant increase"}, {"measurement": "percentage of distance moved in central area", "setting": "5-dpf zebrafish larvae [2]; [5]", "result": "significant increases"}, {"measurement": "percentage of time spent in central area", "setting": "5-dpf zebrafish larvae [2]; [5]", "result": "significant increase"}, {"measurement": "percentage of distance moved in central area", "setting": "5-dpf zebrafish larvae [2]; [6]", "result": "significant increases"}, {"measurement": "percentage of time spent in central area", "setting": "5-dpf zebrafish larvae [2]; [6]", "result": "significant increase"}, {"measurement": "locomotor activity (average distance moved per 1-min time bin)", "setting": "5-dpf zebrafish larvae [2]; [12]", "result": "significant increases"}, {"measurement": "percentage of distance moved in central area", "setting": "5-dpf zebrafish larvae [2]; [12]", "result": "increase"}, {"measurement": "locomotor activity (average distance moved per 1-min time bin)", "setting": "5-dpf zebrafish larvae [2]; [13]", "result": "significant increases"}, {"measurement": "percentage of distance moved in central area", "setting": "5-dpf zebrafish larvae [2]; [13]", "result": "increase"}, {"measurement": "locomotor activity (average distance moved per 1-min time bin)", "setting": "5-dpf zebrafish larvae [2]; [14]", "result": "significant increases"}, {"measurement": "percentage of distance moved in central area", "setting": "5-dpf zebrafish larvae [2]; [14]", "result": "increase"}, {"measurement": "locomotor activity (average distance moved per 1-min time bin)", "setting": "5-dpf zebrafish larvae [2]; [7]", "result": "significant increases"}, {"measurement": "percentage of distance moved in central area", "setting": "5-dpf zebrafish larvae [2]; [7]", "result": "increase"}, {"measurement": "locomotor activity (average distance moved per 1-min time bin)", "setting": "5-dpf zebrafish larvae [2]; [8]", "result": "significant increases"}, {"measurement": "percentage of distance moved in central area", "setting": "5-dpf zebrafish larvae [2]; [8]", "result": "increase"}, {"measurement": "percentage of time spent in central area", "setting": "5-dpf zebrafish larvae [2]; dark phase vs light phase within same group, all concentrations (1.5, 3, 6, 9, 15 μM)", "result": "increase"}, {"measurement": "distance moved by the larvae in the central arena", "setting": "5-dpf zebrafish larvae [2]", "result": "significantly increased"}, {"measurement": "time spent in the central area", "setting": "5-dpf zebrafish larvae [2]", "result": "significantly increased"}, {"measurement": "spontaneous locomotor activity (average distance moved)", "setting": "5-dpf zebrafish larvae [3]; all concentrations (1.5, 3, 6, 9, 15 µM)", "result": "has not influenced"}]}, {"smiles": "O=c1ccc2ccc(O)cc2o1", "note": "[umbelliferone, 7-hydroxycoumarin]", "values": [{"measurement": "anxiolytic effects", "setting": "[4]", "result": "significant sustained anxiolytic effects"}]}]}
